melting point [°C]	Structure (SMILES)
203 to 204.6	CCOCc1nc2c(N)nc3ccccc3c2n1CC(C)(C)NC(=O)CCC(=O)NN [IRM5, N-{2-[4-Amino-2-(ethoxymethyl)-1H-imidazo[4,5-c]quinolin-1-yl]-1,1-dimethylethyl}-4-hydrazino-4-oxobutanamide]
152 to 157	CCOCc1nc2c(N)nc3cc(OCCCCCCNC(=O)CCS)ccc3c2n1CC(C)(C)NS(C)(=O)=O [IRM10, N-{6-[(4-Amino-2-(ethoxymethyl)-1-{2-methyl-2-[(methylsulfonyl)amino]propyl}-1H-imidazo[4,5-c]quinolin-7-yl)oxy]hexyl}-3-mercaptopropanamide]

Reference: patent publication US10472420B2, “Immune response modifier conjugates” (3M INNOVATIVE PROPERTIES COMPANY, priority 2006, dated 2019)
